The target in data set [1] is T1, hOAT (Homo sapiens, UniProt P04181).
T1 construct: made in house; host or cells: E. coli BL21(DE3)
T1 sequence (P04181 26-439): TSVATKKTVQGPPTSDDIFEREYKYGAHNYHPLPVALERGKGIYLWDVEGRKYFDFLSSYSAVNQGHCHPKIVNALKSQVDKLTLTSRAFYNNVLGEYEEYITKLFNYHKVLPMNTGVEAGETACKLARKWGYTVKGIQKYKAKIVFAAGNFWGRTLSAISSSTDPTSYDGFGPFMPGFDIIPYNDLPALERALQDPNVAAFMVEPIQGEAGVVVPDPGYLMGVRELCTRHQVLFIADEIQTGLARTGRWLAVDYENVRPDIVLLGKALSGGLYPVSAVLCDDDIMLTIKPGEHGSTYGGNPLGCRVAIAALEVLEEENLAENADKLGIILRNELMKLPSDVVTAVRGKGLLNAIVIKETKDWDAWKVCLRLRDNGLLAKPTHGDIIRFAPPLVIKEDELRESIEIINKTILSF
The data set is described as follows: Partition ratio experiment (titration of hOAT). The data set is classed as biochemical. Here is the method: FIG. 9. Titration of hOAT with SS-1-148. The loss of enzyme activity was measured as a function of the ratio of […] to enzyme concentration. Linear regression was used on the linear portion of the curves to obtain the X-intercept, which was the turnover number (partition ratio=turnover number−1).
The partition ratio was calculated using previous protocols.^8-10

A short description of data set [2]: Liver microsomal stability, mouse. The data set is classed as in vitro ADME. Background: Liver microsomes are a subcellular fraction often used to study metabolism.
In data set [3] the target is T1, hOAT. The data set is described as follows: Time-dependent dialysis of inhibited hOAT. The settings on record: up to 48 h against buffer with excessive PLP and α-KG. The data set is classed as biochemical. Here is the method: Plausible Inactivation Mechanisms of SS-1-148 with hOAT. The irreversibility of the inhibition of hOAT by SS-1-148 was evaluated by a time-dependent dialysis experiment up to 48 h against a buffer consisting of excessive PLP and α-KG (FIG. 10). […] To reveal the structure of the final product in the inactivation reaction, we co-crystallized hOAT with an excessive amount of SS-1-148. […] It also contains three copies of the protein monomer in one asymmetric unit. Similar to the soaking crystal structure shown in FIG. 4A, PLP is covalently linked to SS-1-148 moiety in the cocrystal structure. However, no covalent bond is noticed between Lys292 and the final product. Moreover, in the published crystal structure of the native enzyme (holo-hOAT), Arg413 typically forms a salt bridge with Glu235, which is found intact for several cocrystals of hOAT with different inactivators.^14, 23, 26 In the hOAT/SS-1-148 soaking result (FIG. 4A), the salt bridge of Arg413-Glu235 is broken due to the existence of an alternative salt bridge between the carboxylate of one intermediate and Arg413. […] Instead, Arg413, Gln266, and the final product are hydrogen-bonded to the same water molecule.
The dialysis experiment was conducted using previous protocols.^8-10

In data set [4] the target is T1, hOAT. The data set is described as follows: Transient state (stopped-flow) measurements of hOAT reacting with SS-1-148. The format is biochemical. The settings on record: 10° C., pH 7.5. Here is the method: FIG. 6. Transient state absorption changes observed at 275, 420, and 560 nm for hOAT reacting with SS-1-148. OAT (12.7 μM final) was mixed with SS-1-148 (126, 251, 502, 1004, 2008, 4016 μM), and CCD spectra were collected for the timeframe 0.009-49.2 seconds. (A) The data observed at 420 nm fit to a linear combination of three exponential terms according to equation (3) described in the supporting information. The arrow indicates the trend observed in amplitude for increasing inhibitor concentration. (B) The observed rate constant dependence of the first phase observed at 420 nm fit to equation (5) described in the supporting information. The values for k2 and k3 indicated are the average values obtained from the fit in FIG. 5A. The fit is shown in red dashes. (C) The data observed at 560 nm. The curved arrow indicates the trend observed in amplitude for increasing inhibitor concentration. […] The fit is shown in red dashes. (D) The data observed at 275 nm over 2000 sec obtained in the presence of 8032 μM SS-1-148 fit to a linear combination of two exponential terms according to equation (4) in the supporting information. The fit is shown in red dashes.
FIG. 7. Partial deconvolution by singular value decomposition (SVD) of transient state absorption changes observed for hOAT reacting with SS-1-148. hOAT (6.94 μM; final concentration) was reacted in a stopped-flow spectrophotometer with SS-1-148 (1040 μM; final concentration) at 10° C. To obtain time resolution sufficient to analyze kinetic rates spanning four orders of magnitude, a composite CCD absorbance dataset was prepared spanning 250-800 nm and 0.0137-9843 sec by splicing together averaged short and long time-frame datasets. […] The species concentration profile based on the rate constants used to fit the dataset (B). A three-dimensional depiction of a subset of spectra from the dataset analyzed (C).
For each concentration of the inhibitor, CCD spectral datasets were collected in duplicate for 50 sec, and the duplicates were averaged For the highest concentration of inhibitor (8 mM) duplicate CCD datasets were acquired for two timeframes (0.0025-12.4 sec and 0.0025-2480 sec). Duplicate datasets for anyone timeframe were averaged and then spliced together at 12 sec to form one dataset with sufficient time resolution to adequately describe rapid and slow processes. […] In the process, the rate constants were fixed to the values measured using analytical fits to data extracted for single wavelengths that assume successive first-order processes according to the equations (3), (4), and (5). Abs is absorbance, Ax are the amplitudes associated with each observed phase, kx are the corresponding rate constants, and C is the absorbance endpoint.

The record followed here is patent US20240174596A1 (Northwestern University, priority 2021, published 2024).

Structures can show the parent of a compound that is named as a salt.

As to `N[C@H]1C=C(C(=O)O)CC1(F)F` [SS-1-148, (S)-3-Amino-4,4-difluorocyclopent-1-enecarboxylic acid hydrochloric acid salt], the “equivalents turned over per active site for each equivalent leading to inactivation” value on hOAT [1] amounted to 34.9 equivalents. In data set [2], the “Liver microsomal stability (t1/2) Mouse” value was “N/C”. The “remaining activity of hOAT after dialysis” value on hOAT [3] is listed as “unchanged”. At hOAT [4], the “rate constant of final phase (increase at ~275 nm)” value stood at 0.007 s⁻¹, the “rate dependence of second external aldimine formation (bimolecular reaction)” value was 6200 M⁻¹ s⁻¹, the “rate of accumulation of quinonoid species (~560 nm)” value amounted to 0.4 s⁻¹ and the “rate of quinonoid decay” value worked out at 0.09 s⁻¹.
